The test system of the test is Aβ1-42 production. The test is described as follows: Cellular assay for inhibition of Aβ1-42 production (H4 APP751 SWE clone 8.20). It counts as cell-based. The conditions noted are these: H4 APP751 SWE clone 8.20 cells, 19 h incubation. The method, boiled down: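 Compound-treated cells were incubated 19 h at 37 °C in 5% CO2. Aβ42 in the cell plate was detected overnight at 4 °C with an Aβ42 neoepitope antibody (565, Wallac-labelled, 0.8 ng/well) plus N-terminal antibody 26D6 (APC, 75 ng/well) in 40 mM Tris-HCl pH 7.4, 0.2% BSA. IC50s came from curve fitting.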

Setting [1] is: 19 h, class symbols, read-out: Activity Rating (Aβ42 cellular IC50).
Where [2] appears, read: 19 h, read-out: Activity Rating (Aβ42 cellular IC50), numeric value.
Setting [3] is: class symbols, read-out: Activity Rating (Aβ42 cellular IC50).

The structures appear in SMILES notation. Where a name gives a salt, the structure may show the parent alone. Read-outs that look alike come from different tables or passages of the source.

As usually defined, the IC50 is the midpoint of a concentration-inhibition curve. As for `CCNc1nc(Nc2ccc(-n3cnc(C)n3)c(OC)c2)nc2c1COCC2c1ccc(F)cc1` (centres unmarked) [Example 55B, N4-ethyl-8-(4-fluorophenyl)-N2-(3-methoxy-4-(3-methyl-1H-1,2,4-triazol-1-yl)phenyl)-7,8-dihydro-5H-pyrano[4,3-d]pyrimidine-2,4-diamine], the IC50 under setting [1] is 10 to 100 nM. On to `Cc1ncnn1-c1ccc(Nc2nc3c(c(N4CC(F)(F)C4)n2)COCC3c2ccc(Cl)cc2)cc1F` (centres unmarked) [Example 68, 8-(4-chlorophenyl)-4-(3,3-difluoroazetidin-1-yl)-N-(3-fluoro-4-(5-methyl-1H-1,2,4-triazol-1-yl)phenyl)-7,8-dihydro-5H-pyrano[4,3-d]pyrimidin-2-amine], for which the IC50 under setting [1] fell in the range of 10 to 100 nM. On the same count and under the same terms, the figure for `COc1cc(Nc2nc3c(c(N4C[C@@H](C)O[C@@H](C)C4)n2)COC3c2ccc(F)cc2)ccc1-n1cnc(Cl)c1` (mixture of isomers) [Example 84, N-(4-(4-chloro-1H-imidazol-1-yl)-3-methoxyphenyl)-4-((2S,6R)-2,6-dimethylmorpholino)-7-(4-fluorophenyl)-5,7-dihydrofuro[3,4-d]pyrimidin-2-amine, 2 TFA] is 10 to 100 nM; for `CCOCCCNc1nc(Nc2ccc(-n3cnc(Cl)c3)c(OC)c2)nc2c1CCC2c1ccc(F)cc1` (centres unmarked) [Example 42, N2-(4-(4-chloro-1H-imidazol-1-yl)-3-methoxyphenyl)-N4-(3-ethoxypropyl)-7-(4-fluorophenyl)-6,7-dihydro-5H-cyclopenta[d]pyrimidine-2,4-diamine] it is 10 to 100 nM.

As for `COc1cc(Nc2nc3c(c(N4CCC(N(C)C)C4)n2)CCC3c2ccc(F)cc2)ccc1-n1cnc(Cl)c1` (centres unmarked) [Example 29, N-(4-(4-chloro-1H-imidazol-1-yl)-3-methoxyphenyl)-4-(3-(dimethylamino)pyrrolidin-1-yl)-7-(4-fluorophenyl)-6,7-dihydro-5H-cyclopenta[d]pyrimidin-2-amine], the half-maximal inhibitory concentration (IC50) under setting [1] lay in the range of 10 to 100 nM. For `CNc1nc(Nc2ccc(-n3cnc(C)n3)c(OC)c2)nc2c1COCC2c1ccc(F)cc1` (racemic) [Example 54, 8-(4-fluorophenyl)-N2-(3-methoxy-4-(3-methyl-1H-1,2,4-triazol-1-yl)phenyl)-N4-methyl-7,8-dihydro-5H-pyrano[4,3-d]pyrimidine-2,4-diamine], the 50% inhibitory concentration (IC50) under setting [1] lay within 10 to 100 nM. For the compound `CCNc1nc(Nc2ccc(-n3cnc(C)n3)c(F)c2)nc2c1CN(S(C)(=O)=O)CC2c1ccc(F)cc1` (centres unmarked) [Example 156A, N4-ethyl-N2-(3-fluoro-4-(3-methyl-1H-1,2,4-triazol-1-yl)pheny)-8-(4-fluorophenyl)-6-(methylsulfonyl)-5,6,7,8-tetrahydropyrido[4,3-d]pyrimidine-2,4-diamine], the IC50 under setting [2] is 9.8 nM.

In the case of `CCNc1nc(Nc2ccc(-n3ncnc3C)c(F)c2)nc2c1CN(S(C)(=O)=O)CC2c1ccc(F)cc1` (centres unmarked) [Example 157, N4-ethyl-N2-(3-fluoro-4-(5-methyl-1H-1,2,4-triazol-1-yl)phenyl)-6-(methylsulfonyl)-8-(4-fluorophenyl)-5,6,7,8-tetrahydropyrido[4,3-d]pyrimidine-2,4-diamine], the IC50 under setting [1] fell in the range of 10 to 100 nM. Consider `COc1cc(Nc2nc3c(c(N4CC(OC)C4)n2)CCC3c2ccccc2)ccc1-n1cnc(Cl)c1` (single isomer, unassigned) [Example 183B, N-(4-(4-chloro-1H-imidazol-1-yl)-3-methoxyphenyl)-4-(3-methoxyazetidin-1-yl)-7-phenyl-6,7-dihydro-5H-cyclopenta[d]pyrimidin-2-amine], for which, under setting [3], the IC50 lay in the range of 10 to 100 nM. On to `COc1cc(Nc2nc3c(c(N4C[C@@H](C)O[C@@H](C)C4)n2)COC3c2ccc(F)cc2)ccc1-n1cnc(Cl)c1` (stereo partly drawn) [Example 84B, N-(4-(4-chloro-1H-imidazol-1-yl)-3-methoxyphenyl)-4-((2S,6R)-2,6-dimethylmorpholino)-7-(4-fluorophenyl)-5,7-dihydrofuro[3,4-d]pyrimidin-2-amine], for which the IC50 under setting [2] turned out to be 290 nM. `COc1cc(Nc2nc3c(c(N(C)C)n2)CCCC3c2ccc(F)cc2)ccc1-n1cnc(Cl)c1` (racemic) [Example 127, N^2-(4-(4-Chloro-1H-imidazol-1-yl)-3-methoxyphenyl)-8-(4-fluorophenyl)-N^4,N^4-dimethyl-5,6,7,8-tetrahydroquinazoline-2,4-diamine]: the IC50 under setting [1] lay within 10 to 100 nM.

With `COc1cc(Nc2nc3c(c(N(C)C)n2)COCC3c2ccc(F)cc2)ccc1-n1cnc(Cl)c1` (racemic) [Example 61, N2-(4-(4-chloro-1H-imidazol-1-yl)-3-methoxyphenyl)-8-(4-fluorophenyl)-N4,N4-dimethyl-7,8-dihydro-5H-pyrano[4,3-d]pyrimidine-2,4-diamine], the IC50 under setting [1] was in the range of 10 to 100 nM.

Take `COc1cc(Nc2nc3c(c(N4CCC(C(F)(F)F)C4)n2)CCC3c2ccc(F)cc2)ccc1-n1cnc(Cl)c1` (racemic) [Example 41, N-(4-(4-chloro-1H-imidazol-1-yl)-3-methoxyphenyl)-7-(4-fluorophenyl)-4-(3-(trifluoromethyl)pyrrolidin-1-yl)-6,7-dihydro-5H-cyclopenta[d]pyrimidin-2-amine]: under setting [1], the IC50 was 10 to 100 nM. Take `CNc1nc(Nc2ccc(-n3cnc(Cl)c3)c(OC)c2)nc2c1CCOC2c1ccccc1` (centres unmarked) [Example 85, N2-(4-(4-chloro-1H-imidazol-1-yl)-3-methoxyphenyl)-N4-methyl-8-phenyl-6,8-dihydro-5H-pyrano[3,4-d]pyrimidine-2,4-diamine]: the 50% inhibitory concentration (IC50) under setting [1] was in the range of 1.5 to 9.9 nM. The same measure, in the same setting: the figure for `COc1cc(Nc2nc(NC3CC3)c3c(n2)C(c2ccccc2)CC3)ccc1-n1cnc(Cl)c1` (centres unmarked) [Example 8, N2-(4-(4-chloro-1H-imidazol-1-yl)-3-methoxyphenyl)-N4-cyclopropyl-7-phenyl-6,7-dihydro-5H-cyclopenta[d]pyrimidine-2,4-diamine] is 1.5 to 9.9 nM. `CNc1nc(Nc2ccc(-n3cnc(Cl)c3)c(OC)c2)nc2c1COCC2c1ccccc1` (centres unmarked) [Example 51, N^2-(4-(4-chloro-1H-imidazol-1-yl)-3-methoxyphenyl)-N^4-methyl-8-phenyl-7,8-dihydro-5H-pyrano[4,3-d]pyrimidine-2,4-diamine]: the IC50 under setting [2] came out at 4.5 nM. Take `COc1cc(Nc2nc3c(c(N4CC(C)(OC)C4)n2)CCC3c2ccc(F)cc2)ccc1-n1cnc(Cl)c1` (centres unmarked) [Example 191, N-(4-(4-chloro-1H-imidazol-1-yl)-3-methoxyphenyl)-7-(4-fluorophenyl)-4-(3-methoxy-3-methylazetidin-1-yl)-6,7-dihydro-5H-cyclopenta[d]pyrimidin-2-amine]: the IC50 under setting [1] was 10 to 100 nM. In the case of `COc1cc(Nc2nc3c(c(N4CC(F)C4)n2)CCC3c2ccccc2)ccc1-n1cnc(Cl)c1` (centres unmarked) [Example 182A, N-(4-(4-chloro-1H-imidazol-1-yl)-3-methoxyphenyl)-4-(3-fluoroazetidin-1-yl)-7-phenyl-6,7-dihydro-5H-cyclopenta[d]pyrimidin-2-amine], the concentration for half-maximal inhibition (IC50) under setting [3] lay in the range of 1.5 to 9.9 nM. Regarding `CCNc1nc(Nc2ccc(-n3cnc(Cl)c3)c(OC)c2)nc2c1CN(S(=O)(=O)C1CC1)CC2c1ccccc1` (centres unmarked) [Example 136, N2-(4-(4-chloro-1H-imidazol-1-yl)-3-methoxyphenyl)-6-(cyclopropylsulfonyl)-N4-ethyl-8-phenyl-5,6,7,8-tetrahydropyrido[4,3-d]pyrimidine-2,4-diamine], the IC50 under setting [1] was in the range of 1.5 to 9.9 nM.

As for `CCNc1nc(Nc2ccc(-n3ncnc3C)c(F)c2)nc2c1COCC2c1ccc(F)c(F)c1` (racemic) [Example 116, 8-(3,4-difluorophenyl)-N4-ethyl-N2-(3-fluoro-4-(5-methyl-1H-1,2,4-triazol-1-yl)phenyl)-7,8-dihydro-5H-pyrano[4,3-d]pyrimidine-2,4-diamine, TFA], the concentration for half-maximal inhibition (IC50) under setting [1] lay within 10 to 100 nM.

The record behind these values is patent US8637525B2, “Compounds for the reduction of beta-amyloid production” (Bristol-Myers Squibb Company, priority 2009, dated 2014).
